# According to patent publication US20050095240A1, “NaCT as a target for lifespan expansion and weight reduction” (Medical College of Georgia Research, priority 2002, published 2005):
# Where “and” joins values, the source holds several entries; their conditions need not be identical. Equal values may be shown once. Read-outs that look alike come from different tables or passages of the source.
# Assays:
# [1] = biological target: drIndy (Drosophila melanogaster, UniProt Q9VVT2)
# [2] = biological target: T1, rat NaCT (Rattus norvegicus, UniProt Q8CJ44); assay: Uptake via rat NaCT expressed in HRPE cells; type: cell-based; conditions: for Citrate Uptake, cDNA-specific / Citrate Uptake, cDNA: pH 7.5
# T1 sequence (Q8CJ44 1-572): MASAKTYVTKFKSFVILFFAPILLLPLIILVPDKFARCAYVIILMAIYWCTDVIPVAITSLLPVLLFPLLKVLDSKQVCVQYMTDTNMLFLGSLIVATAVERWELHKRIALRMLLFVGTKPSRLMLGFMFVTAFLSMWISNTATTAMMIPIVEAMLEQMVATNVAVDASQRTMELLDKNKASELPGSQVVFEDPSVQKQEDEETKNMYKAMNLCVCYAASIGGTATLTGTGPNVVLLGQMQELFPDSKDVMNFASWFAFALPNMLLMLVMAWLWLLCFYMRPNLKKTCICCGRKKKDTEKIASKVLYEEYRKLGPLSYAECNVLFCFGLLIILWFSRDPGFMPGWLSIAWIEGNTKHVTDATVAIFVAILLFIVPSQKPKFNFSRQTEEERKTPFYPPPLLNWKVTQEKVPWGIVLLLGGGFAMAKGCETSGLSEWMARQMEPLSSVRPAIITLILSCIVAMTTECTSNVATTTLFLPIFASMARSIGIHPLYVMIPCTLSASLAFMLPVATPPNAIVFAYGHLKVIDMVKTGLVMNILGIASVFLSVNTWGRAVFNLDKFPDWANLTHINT
# [3] = biological target: human NaCT (Homo sapiens, UniProt Q86YT5); assay: Uptake via human NaCT expressed in HRPE cells; type: cell-based; conditions: for Citrate Uptake, cDNA / Citrate Uptake, cDNA-specific: pH 7.5
# [4] = biological target: T2, mouse NaCT (Mus musculus, UniProt Q67BT3); assay: Transport via mouse NaCT expressed in HRPE cells; type: cell-based
# T2 sequence (Q67BT3 1-572): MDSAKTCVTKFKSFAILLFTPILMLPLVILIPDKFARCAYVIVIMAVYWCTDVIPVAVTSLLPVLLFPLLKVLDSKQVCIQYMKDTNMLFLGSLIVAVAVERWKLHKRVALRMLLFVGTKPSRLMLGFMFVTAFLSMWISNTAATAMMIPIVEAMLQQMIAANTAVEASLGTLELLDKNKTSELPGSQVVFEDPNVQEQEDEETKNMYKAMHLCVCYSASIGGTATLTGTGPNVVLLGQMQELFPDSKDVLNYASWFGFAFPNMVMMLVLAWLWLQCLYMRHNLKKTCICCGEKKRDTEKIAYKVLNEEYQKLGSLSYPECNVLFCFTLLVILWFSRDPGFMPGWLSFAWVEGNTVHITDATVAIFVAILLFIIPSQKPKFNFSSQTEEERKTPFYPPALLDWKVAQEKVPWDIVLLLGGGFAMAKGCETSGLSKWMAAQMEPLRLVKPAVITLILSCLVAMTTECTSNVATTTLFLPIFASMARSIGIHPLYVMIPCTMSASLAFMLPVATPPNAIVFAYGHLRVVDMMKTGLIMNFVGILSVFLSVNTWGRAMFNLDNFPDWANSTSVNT
# [5] = biological target: T3, ceNaCT (Caenorhabditis elegans, UniProt P32739, I91S/L182M); assay: Uptake via ceNaCT expressed in HRPE cells
# T3 sequence (P32739 1-551 I91S/L182M): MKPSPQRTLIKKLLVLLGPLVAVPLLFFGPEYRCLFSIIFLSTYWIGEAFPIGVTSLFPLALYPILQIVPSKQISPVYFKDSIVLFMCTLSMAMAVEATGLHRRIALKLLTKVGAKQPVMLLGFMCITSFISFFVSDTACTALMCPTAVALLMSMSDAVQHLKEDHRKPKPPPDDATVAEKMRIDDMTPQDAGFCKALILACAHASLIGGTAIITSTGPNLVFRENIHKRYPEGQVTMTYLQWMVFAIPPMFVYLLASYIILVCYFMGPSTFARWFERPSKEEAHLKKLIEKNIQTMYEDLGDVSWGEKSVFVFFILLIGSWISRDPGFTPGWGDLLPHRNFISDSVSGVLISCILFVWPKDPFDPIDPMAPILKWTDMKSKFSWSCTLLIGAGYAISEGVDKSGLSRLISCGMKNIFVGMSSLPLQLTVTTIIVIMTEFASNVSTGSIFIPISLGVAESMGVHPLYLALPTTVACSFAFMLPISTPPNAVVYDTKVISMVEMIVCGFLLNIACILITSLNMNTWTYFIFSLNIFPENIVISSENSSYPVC
# [6] = [3H]succinate 40 nM, inhibitor 2.5 mM
# [7] = [3H]succinate 40 nM, inhibitor 2.5 mM, NaCl buffer pH 7.5
# [8] = [14C]citrate 7 μM, indicated salt
# [9] = [14C]citrate 7 μM, rat NaCT cDNA-transfected HRPE, indicated salt
# [10] = relative to NaCl, [14C]citrate 7 μM
# [11] = [14C]-citrate 20 μM, human NaCT cDNA-transfected HRPE, indicated salt
# [12] = [14C]-citrate 20 μM, indicated salt
# [13] = citrate 35 μM, drIndy cDNA-transfected HRPE cells, indicated salt
# drIndy, sequence (Q9VVT2 19-590): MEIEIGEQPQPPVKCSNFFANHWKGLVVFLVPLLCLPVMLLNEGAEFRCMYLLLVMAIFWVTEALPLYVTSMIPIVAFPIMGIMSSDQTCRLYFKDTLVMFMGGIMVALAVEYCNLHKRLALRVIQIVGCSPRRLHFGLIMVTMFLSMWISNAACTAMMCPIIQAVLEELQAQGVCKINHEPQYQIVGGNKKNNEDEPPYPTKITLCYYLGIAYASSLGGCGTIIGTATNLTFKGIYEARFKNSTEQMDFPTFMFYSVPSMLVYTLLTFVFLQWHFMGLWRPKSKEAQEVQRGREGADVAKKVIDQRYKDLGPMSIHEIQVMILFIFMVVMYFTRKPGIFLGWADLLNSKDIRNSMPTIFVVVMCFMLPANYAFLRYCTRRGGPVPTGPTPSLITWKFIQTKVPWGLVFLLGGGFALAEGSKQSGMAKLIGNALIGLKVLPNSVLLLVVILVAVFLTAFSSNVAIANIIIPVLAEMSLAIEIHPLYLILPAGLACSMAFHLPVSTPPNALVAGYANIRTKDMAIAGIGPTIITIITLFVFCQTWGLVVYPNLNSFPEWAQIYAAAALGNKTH
# human NaCT, sequence (Q86YT5 whole entry): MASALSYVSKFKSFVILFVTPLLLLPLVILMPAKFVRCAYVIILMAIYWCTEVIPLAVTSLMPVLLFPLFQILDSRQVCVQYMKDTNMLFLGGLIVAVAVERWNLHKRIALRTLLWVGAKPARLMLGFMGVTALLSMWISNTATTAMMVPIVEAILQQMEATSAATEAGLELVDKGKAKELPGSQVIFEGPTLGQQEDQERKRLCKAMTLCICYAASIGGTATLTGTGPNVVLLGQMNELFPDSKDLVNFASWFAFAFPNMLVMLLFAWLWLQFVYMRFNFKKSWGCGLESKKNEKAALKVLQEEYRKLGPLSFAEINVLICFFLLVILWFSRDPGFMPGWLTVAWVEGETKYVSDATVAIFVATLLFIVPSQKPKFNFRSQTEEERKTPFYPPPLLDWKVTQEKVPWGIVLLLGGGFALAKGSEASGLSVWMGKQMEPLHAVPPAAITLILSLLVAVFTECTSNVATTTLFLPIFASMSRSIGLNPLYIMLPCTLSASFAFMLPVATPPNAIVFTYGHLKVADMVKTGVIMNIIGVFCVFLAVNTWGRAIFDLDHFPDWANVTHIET
structure (smiles),measurement,setting,value
COC(=O)CCC(=O)OC [Dimethylsuccinate],% Control of cDNA-specific [^3H]succinate uptake,[1]; [6],13%
same,cDNA-specific [^3H] succinate uptake,[1]; [7],14.1 ± 0.8 fmol/106 cells per min
"CC(=O)C(=O)O [Pyruvate, pyruvate]","[^14C]Citrate uptake, %","[2]; [14C]citrate 14 μM, unlabeled compound 2.5 mM, none = 100",83%
same,"[^14C]-Citrate Uptake, %","[3]; [14C]-citrate 20 μM, unlabeled compound 2.5 mM, none = 100",108%
same,"[^3H]-Succinate transport, %","[4]; [3H]-succinate 0.1 μM, substrate analog 2 mM, control = 100",104%
same,"[^14C]-Citrate transport, %","[4]; [14C]-citrate 10 μM, substrate analog 2 mM, control = 100",84%
same,% Control of cDNA-specific [^3H]succinate uptake,[1]; [6],21%
O=C(O)CCC(=O)C(=O)O [2-Oxoglutarate],% Control of cDNA-specific [^3H]succinate uptake,[1],5%
same,cDNA-specific [^3H] succinate uptake,[1]; pH 7.5,3.0 ± 1.0 fmol/106 cells per min
same,Competition with [^14C]citrate for ceNaCT-mediated uptake,[5],inhibited markedly
O=C(O)CC(O)(C(=O)O)C(O)C(=O)O (stereo not shown) [hydroxycitrate],Inhibition of citrate uptake via NaCT,"[2]; 0.1 mM hydroxycitrate, rat NaCT in HRPE cells",30-40%
same,Inhibition of citrate uptake via NaCT,"[3]; 0.1 mM hydroxycitrate, human NaCT in HRPE cells",30-40%
[Cl-].[Li+] [LiCl],"Citrate Uptake, cDNA-specific",[2]; [8],1.1 ± 0.1 pmol/10^6 cells/min
same,"Citrate Uptake, cDNA",[2]; [9],1.6 ± 0.1 pmol/10^6 cells/min
same,"Citrate Uptake, cDNA-specific, %",[2]; [10],3%
same,"Citrate Uptake, cDNA",[3]; [11],2.0 ± 0.1 pmol/10^6 cells/min
same,"Citrate Uptake, cDNA-specific",[3]; [12],0.7 ± 0.1 pmol/10^6 cells/min
same,"Citrate Uptake, cDNA-specific, %",[3]; relative to NaCl,1%
same,"Citrate uptake, drIndy",[1]; [13],52.1 ± 2.2 pmol/10^6 cells per min
same,Fold Increase of citrate uptake (drIndy vs vector),"[1]; citrate 35 μM, indicated salt",27.4 fold
"CNC[C@H](O)[C@@H](O)[C@H](O)[C@H](O)CO.Cl [NMDG chloride, N-methyl-D-glucamine chloride]","Citrate Uptake, cDNA-specific",[2]; [8],0.4 ± 0.3 pmol/10^6 cells/min
same,"Citrate Uptake, cDNA",[2]; [9],1.6 ± 0.3 pmol/10^6 cells/min
same,"Citrate Uptake, cDNA-specific, %",[2]; [10],1%
same,"Citrate Uptake, cDNA",[3]; [11],1.3 ± 0.2 pmol/10^6 cells/min
same,"Citrate Uptake, cDNA-specific",[3]; [12],−0.1 ± 0.2^ pmol/10^6 cells/min
same,"Citrate Uptake, cDNA-specific, %",[3]; relative to NaCl,0%
same,"Citrate uptake, drIndy",[1]; [13],25.4 ± 1.8 pmol/10^6 cells per min
same,Fold Increase of citrate uptake (drIndy vs vector),"[1]; citrate 35 μM, indicated salt",13.4 fold
O=C(O)/C=C/C(=O)O [Fumarate],[^14C]Citrate uptake (cDNA-specific),[2],17.7 ± 1.4 Pmol/10^6 cells/min
same,"[^14C]Citrate uptake, %",[2],16%
same,[^14C]-Citrate Uptake (cDNA-specific),[3],43.7 ± 5.0 pmol/10^6 cells/min
same,"[^14C]-Citrate Uptake, %",[3],92%
same,IC50,[3]; read-out: IC50 for inhibition of human NaCT-mediated [^14C]-citrate uptake,12.6 ± 5 mM
same,[^3H]-Succinate transport (NaCT-specific),[4],0.007 ± 0.002 pmol/10^6 cells/min
same,"[^3H]-Succinate transport, %",[4],5%
same,[^14C]-Citrate transport (NaCT-specific),[4],1.6 ± 0.4 pmol/10^6 cells/min
same,"[^14C]-Citrate transport, %",[4],4%
same,% Control of cDNA-specific [^3H]succinate uptake,[1],6%
same,cDNA-specific [^3H] succinate uptake,[1]; pH 7.5,4.8 ± 0.3 fmol/106 cells per min
same,Competition with [^14C]citrate for ceNaCT-mediated uptake,[5],inhibited markedly
CC(=O)N[C@@H](CC(=O)O)C(=O)O [N-Acetylaspartate],% Control of cDNA-specific [^3H]succinate uptake,[1]; [6],43%
same,cDNA-specific [^3H] succinate uptake,[1]; [7],58.4 ± 1.5 fmol/106 cells per min
[Cl-].[Na+] [NaCl],"Citrate Uptake, cDNA-specific",[2]; [8],38.0 ± 3.3 pmol/10^6 cells/min
same,"Citrate Uptake, cDNA",[2]; [9],38.8 ± 3.3 pmol/10^6 cells/min
same,"Citrate Uptake, cDNA-specific, %",[2]; [10],100%
same,"Citrate Uptake, cDNA",[3]; [11],59.9 ± 3.9 pmol/10^6 cells/min
same,"Citrate Uptake, cDNA-specific",[3]; [12],58.4 ± 3.9 pmol/10^6 cells/min
same,"Citrate Uptake, cDNA-specific, %",[3]; relative to NaCl,100%
same,"Citrate uptake, drIndy",[1]; [13],57.4 ± 3.3 pmol/10^6 cells per min
same,Fold Increase of citrate uptake (drIndy vs vector),"[1]; citrate 35 μM, indicated salt",26.1 fold
CC(O)CC(=O)O (stereo not drawn) [β-Hydroxybutyrate],% Control of cDNA-specific [^3H]succinate uptake,[1]; [6],91%
same,cDNA-specific [^3H] succinate uptake,[1]; [7],134.0 ± 9.0 fmol/106 cells per min
OC[C@@H](O)[C@@H](O)[C@H](O)[C@H](O)CO [Mannitol],"Citrate Uptake, cDNA-specific",[2]; [8],0.1 ± 0.1 pmol/10^6 cells/min
same,"Citrate Uptake, cDNA",[2]; [9],0.7 ± 0.1 pmol/10^6 cells/min
same,"Citrate Uptake, cDNA-specific, %",[2]; [10],0%
same,"Citrate uptake, drIndy",[1]; [13],26.3 ± 0.3 pmol/10^6 cells per min
same,Fold Increase of citrate uptake (drIndy vs vector),"[1]; citrate 35 μM, indicated salt",15.5 fold
O=C([O-])[C@H](O)[C@@H](O)[C@H](O)[C@H](O)CO.[Na+] [Sodium gluconate],"Citrate Uptake, cDNA-specific",[2]; [8],29.1 ± 2.3 pmol/10^6 cells/min
same,"Citrate Uptake, cDNA",[2]; [9],29.6 ± 2.3 pmol/10^6 cells/min
same,"Citrate Uptake, cDNA-specific, %",[2]; [10],77%
same,"Citrate Uptake, cDNA",[3]; [11],61.7 ± 4.7 pmol/10^6 cells/min
same,"Citrate Uptake, cDNA-specific",[3]; [12],60.1 ± 4.7 pmol/10^6 cells/min
same,"Citrate Uptake, cDNA-specific, %",[3]; relative to NaCl,103%
same,"Citrate uptake, drIndy",[1]; [13],144.2 ± 1.6 pmol/10^6 cells per min
same,Fold Increase of citrate uptake (drIndy vs vector),"[1]; citrate 35 μM, indicated salt",65.6 fold
[Na+] [Na^+],Hill coefficient (nH) of Na+ dependence of citrate uptake,[2],3.3±0.3
same,Hill coefficient (nH) of Na+ activation,[4],3.3±0.6 and 2.0±0.3
same,EC50,[4]; read-out: K0.5 for Na+ (half-maximal activation of the transport process),72 ± 6 mM
"O=C(O)CC(=O)O [Malonate, malonate]",[^14C]-Citrate Uptake (cDNA-specific),[3],57.3 ± 3.2 pmol/10^6 cells/min
same,"[^14C]-Citrate Uptake, %",[3],120%
same,% Control of cDNA-specific [^3H]succinate uptake,[1],71%
same,cDNA-specific [^3H] succinate uptake,[1]; pH 7.5,98.8 ± 7.1 fmol/106 cells per min
same,Competition with [^14C]citrate for ceNaCT-mediated uptake,[5],failed to inhibit the uptake of citrate
[Cl-].[K+] [KCl],"Citrate Uptake, cDNA-specific, %",[2],0%
same,"Citrate Uptake, cDNA",[2],0.6 ± 0.1 pmol/10^6 cells/min
same,"Citrate Uptake, cDNA-specific",[2],0.1 ± 0.1 pmol/10^6 cells/min
same,"Citrate Uptake, cDNA-specific, %",[3],0%
same,"Citrate Uptake, cDNA",[3],1.1 ± 0.1 pmol/10^6 cells/min
same,"Citrate Uptake, cDNA-specific",[3],−0.1 ± 0.1^ pmol/10^6 cells/min
same,"Citrate uptake, drIndy",[1],33.8 ± 2.7 pmol/10^6 cells per min
same,Fold Increase of citrate uptake (drIndy vs vector),[1],19.9 fold
same,"Succinate uptake, drIndy",[1]; pH 7.5,111.0 ± 8.5 fmol/10^6 cells per min
